Test results as given in patent publication US10596127B2, “Composition for reducing the frequency of urination, method of making and use thereof” (WELLESLEY PHARMACEUTICALS, LLC, priority 2013, dated 2020).

What was measured:
Assay type in all cases: cell-based
[1] = system: IL-6 secretion by normal human bladder smooth muscle cells; test: IL-6 ELISA of normal human bladder smooth muscle cell supernatants
[2] = system: PGE2 secretion by mouse bladder cells; test: PGE2 ELISA of mouse bladder cell culture supernatants; conditions: for effect on the effect of LPS on PGE2 secretion: LPS (1 μg/ml), analgesic 5 or 50 μM
Method: Bladder cells were removed from euthanized animals C57BL/6 mice (8-12 weeks old) and cells were isolated by enzymatic digestion followed by purification on a Percoll gradient. […] Bladder slurries were enzymatically digested for 30 minutes at 37° C. Undigested fragments were further dispersed through a cell-trainer. The cell suspension was pelleted and added to a discontinue 20%, 40% and 75% Percoll gradient for purification on mononuclear cells. Each experiment used 50-60 bladders. […] Cells were cultured at 37° C. in a 5% CO2 atmosphere. Bladder cells were treated with analgesic solutions (50 well) either alone or together with carbachol (10-Molar, 50 μl/well), as an example of non-inflammatory stimuli, or lipopolysaccharide (LPS) of Salmonella typhimurium (1 μg/ml, 50 μl/well), as an example of […] stimuli. […] Cells were fixed, permeabilized and blocked for detection of Cyclooxygenase-2 (COX2) using a fluorogenic substrate. In selected experiment cells were stimulated 12 hours in vitro for analysis of COX2 responses […] More specifically, culture supernatants or PGE2 standards were added to the wells of a 96-well polystyrene microplate coated with a goat anti-mouse polyclonal antibody. After one hour incubation on a microplate shaker, an HRP-conjugated PGE2 was added and plates incubated for an additional two hours at room temperature. The plates were then washed and HRP substrate solution added to each well. The color was allowed to develop for 30 min and the reaction stopped by addition sulfuric acid before reading the plate at 450 nm with wavelength correction at 570 nm. Results are expressed as mean pg/ml of PGE2.

[3] = system: IL-6 secretion by normal human bladder smooth muscle cells; test: IL-6 ELISA of normal human bladder smooth muscle cell supernatants; conditions: for IL-6 (pg/ml) Subject 1 / IL-6 (pg/ml) Subject 2: Carbachol 10^−3 M plus analgesic 50 μM; for IL-6 (pg/ml) Subject 1: carbachol alone 232, unstimulated <5, mean of duplicates; for IL-6 (pg/ml) Subject 2: carbachol alone 278, unstimulated <5; for effect on the effect of carbachol and LPS on IL-6 responses: LPS-induced responses: analgesic at either 5 μM or 50 μM
Method: (§1) Culture supernatants were subjected to cytokine-specific ELISA to determine IL-1β, IL-6 and TNF-α responses in cultures of macrophages treated with analgesic, LPS alone or a combination of LPS and analgesic. The assays were performed on Nunc MaxiSorp Immunoplates (Nunc) coated overnight with 100 μl of anti-mouse IL-6, TNF-α mAbs (BD Biosciences) or IL-1β mAb (R&D Systems) in 0.1 M sodium bicarbonate buffer (pH 9.5). After two washes with PBS (200 μl per well), 200 μl of PBS 3% BSA were added in each well (blocking) and the plates incubated for 2 hours at room temperature. Plates were washed again two times by addition of 200 μl per well, 100 μl of cytokine standards and serial dilutions of culture supernatants were added in duplicate and the plates were incubated overnight at 4° C. Finally, the plates were washed twice and incubated with 100 μl of secondary biotinylated anti-mouse IL-6, TNFα mAbs (BD Biosciences) or IL-1β (R&D Systems) followed by peroxidase-labelled goat anti-biotin mAb (Vector Laboratories). The colorimetric reaction was developed by the addition of 2,2′-azino-bis(3)-ethylbenzylthiazoline-6-sulfonic acid (ABTS) substrate and H2O2 (Sigma) and the absorbance measured at 415 nm with a Victor® V multilabel plate reader (PerkinElmer).
(§2) Normal human bladder smooth muscle cells were isolated by enzymatic digestion from macroscopically normal pieces of human bladder. Cells were expended in vitro by culture at 37° C. in a 5% CO2 atmosphere in RPMI 1640 supplemented with 10% fetal bovine serum, 15 mM HEPES, 2 mM L-glutamine, 100 U/ml penicillin, and […] of streptomycin and passage once a week by treatment with trypsin to detach cells followed by reseeding in a new culture flask. The first week of culture, the culture medium was supplemented with 0.5 ng/ml epidermal growth factor, 2 ng/ml fibroblast growth factor, and 5 μg/ml insulin.
(§3) Bladder smooth muscle cells trypsinized and seeded in microculture plates at a cell density of 3×10^4 cells per well in 100 μl were treated with analgesic solutions (50 μl/well) either alone or together carbachol (10-Molar, 50 μl/well), as an example of non-inflammatory stimuli, or lipopolysaccharide (LPS) of Salmonella typhimurium (1 μg/ml, 50 μl/well), as an example of […] stimuli. When no other effectors were added to the cells, 50 μl of RPMI 1640 without fetal bovine serum were added to the wells to adjust the final volume to 200 μl.
(§4) After 24 hours of culture, 150 μl of culture supernatants were collected, spun down for 2 min at 8,000 rpm at 4° C. to remove cells and debris and stored at −70° C. for analysis of Prostaglandin E2 (PGE2) responses by ELISA. Cells were fixed, permeabilized and blocked for detection of COX2 using a fluorogenic substrate. In selected experiment cells were stimulated 12 hours in vitro for analysis of COX2, PGE2 and cytokine responses.
(§5) COX2 and PGE2 responses were analyzed as described in Example 3. Cytokine responses were analyzed as described in Example 2.

[4] = system: PGE2 secretion by normal human bladder smooth muscle cells; test: PGE2 ELISA of normal human bladder smooth muscle cell supernatants; conditions: for effect on the LPS-induced PGE2 responses: analgesic at either 5 μM or 50 μM
Method: Prostaglandin E2 responses were analyzed by a sequential competitive ELISA (R&D Systems). More specifically, culture supernatants or PGE2 standards were added to the wells of a 96-well polystyrene microplate coated with a goat anti-mouse polyclonal antibody. After one hour incubation on a microplate shaker, an HRP-conjugated PGE2 was added and plates incubated for an additional two hours at room temperature. The plates were then washed and HRP substrate solution added to each well. The color was allowed to develop for 30 min and the reaction stopped by addition sulfuric acid before reading the plate at 450 nm with wavelength correction at 570 nm. Results are expressed as mean pg/ml of PGE2.
as §2
[…] When no other effectors were added to the cells, 50 μl of RPMI 1640 without fetal bovine serum were added to the wells to adjust the final volume to 200 μl.
as §4, §5

[5] = system: TNFα secretion by normal human bladder smooth muscle cells; test: TNFα ELISA of normal human bladder smooth muscle cell supernatants; conditions: for TNFα (pg/ml) Subject 2 / TNFα (pg/ml) Subject 1: Carbachol 10^−3 M plus analgesic 50 μM; for TNFα (pg/ml) Subject 2: carbachol alone 286, unstimulated <5; for TNFα (pg/ml) Subject 1: carbachol alone 350, unstimulated <5, mean of duplicates; for effect on the effect of carbachol and LPS on TNFα responses: LPS-induced responses: analgesic at either 5 μM or 50 μM
Method: as §1, §2, §3, §4, §5

[6] = system: TNFα secretion by normal human bladder smooth muscle cells; test: as above
[7] = stimulus alone, no analgesic (Carbachol 10^−3 M; LPS 10 μg/ml), unstimulated <5
[8] = stimulus alone, no analgesic (Carbachol 10^−3 M; LPS 10 μg/ml), unstimulated <20.5
[9] = LPS (10 μg/ml) plus analgesic 5 μM, LPS alone 4383
[10] = LPS (10 μg/ml) plus analgesic 5 μM, LPS alone 4838, mean of duplicates
[11] = LPS (10 μg/ml) plus analgesic 50 μM, LPS alone 4383
[12] = LPS (10 μg/ml) plus analgesic 50 μM, LPS alone 4838, mean of duplicates
[13] = LPS (1 μg/ml) plus analgesic 5 μM, LPS alone 925 ± 55, unstimulated <20.5
[14] = LPS (1 μg/ml) plus analgesic 50 μM, LPS alone 925 ± 55, unstimulated <20.5
[15] = Carbachol 10^−3 M plus analgesic 50 μM, carbachol alone 104, unstimulated <20.5
[16] = Carbachol 10^−3 M plus analgesic 50 μM, carbachol alone 129, unstimulated <20.5, mean of duplicates
[17] = LPS (10 μg/ml) plus analgesic 5 μM, LPS alone 998
[18] = LPS (10 μg/ml) plus analgesic 5 μM, LPS alone 1125, mean of duplicates
[19] = LPS (10 μg/ml) plus analgesic 50 μM, LPS alone 998
[20] = LPS (10 μg/ml) plus analgesic 50 μM, LPS alone 1125, mean of duplicates
[21] = LPS (10 μg/ml) plus analgesic 5 μM, LPS alone 4107
[22] = LPS (10 μg/ml) plus analgesic 5 μM, LPS alone 5725, mean of duplicates
[23] = LPS (10 μg/ml) plus analgesic 50 μM, LPS alone 4107
[24] = LPS (10 μg/ml) plus analgesic 50 μM, LPS alone 5725, mean of duplicates

Structure (SMILES): C[N+](C)(C)CCOC(N)=O [Carbachol, carbachol]
- IL-6 (pg/ml) Subject 1 [1, 7]: 232 pg/mL
- IL-6 (pg/ml) Subject 2 [1, 7]: 278 pg/mL
- PGE2 levels ([2]; stimulus alone, no analgesic (LPS 1 μg/ml, Carbachol (mM)), unstimulated <20.5): <20.5 pg/mL
- PGE2 levels (pg/ml) ([2]; stimulus alone, no analgesic (LPS 1 μg/ml, Carbachol (mM)), unstimulated <20.5, listed as carbachol): not detected
- IL-6 responses to stimulus alone ([3]; no analgesic): induced low, but significant TNFα and IL-6 responses
- PGE2 production in response to stimulus alone ([4]; no analgesic): induced production of PGE2
- PGE2 levels (pg/ml) Subject 1 [4, 8]: 129 pg/mL
- PGE2 levels (pg/ml) Subject 2 [4, 8]: 104 pg/mL
- TNFα responses to stimulus alone ([5]; no analgesic): induced low, but significant TNFα and IL-6 responses
- TNFα (pg/ml) Subject 1 [6, 7]: 350 pg/mL
- TNFα (pg/ml) Subject 2 [6, 7]: 286 pg/mL

Structure (SMILES): COc1ccc2cc([C@H](C)C(=O)O)ccc2c1 [Naproxen]
- IL-6 (pg/ml) Subject 2 [1, 9]: 2229 pg/mL
- IL-6 (pg/ml) Subject 1 [1, 10]: 2077 pg/mL
- IL-6 (pg/ml) Subject 2 [1, 11]: 2028 pg/mL
- IL-6 (pg/ml) Subject 1 [1, 12]: 2102 pg/mL
- PGE2 levels [2, 13]: 597 ± 19 pg/mL
- PGE2 levels [2, 14]: 588 ± 37 pg/mL
- effect on the effect of LPS on PGE2 secretion [2]: suppressed
- IL-6 (pg/ml) Subject 1 [3]: 114 pg/mL
- IL-6 (pg/ml) Subject 2 [3]: 127 pg/mL
- effect on the effect of carbachol and LPS on IL-6 responses [3]: suppress
- PGE2 levels (pg/ml) Subject 2 [4, 15]: 66 pg/mL
- PGE2 levels (pg/ml) Subject 1 [4, 16]: 77 pg/mL
- PGE2 levels (pg/ml) Subject 2 [4, 17]: 506 pg/mL
- PGE2 levels (pg/ml) Subject 1 [4, 18]: 859 pg/mL
- PGE2 levels (pg/ml) Subject 2 [4, 19]: 523 pg/mL
- PGE2 levels (pg/ml) Subject 1 [4, 20]: 819 pg/mL
- effect on the LPS-induced PGE2 responses [4]: suppress
- TNFα (pg/ml) Subject 2 [5]: 137 pg/mL
- TNFα (pg/ml) Subject 1 [5]: 129 pg/mL
- effect on the effect of carbachol and LPS on TNFα responses [5]: suppress
- TNFα (pg/ml) Subject 2 [6, 21]: 2215 pg/mL
- TNFα (pg/ml) Subject 1 [6, 22]: 2591 pg/mL
- TNFα (pg/ml) Subject 2 [6, 23]: 2192 pg/mL
- TNFα (pg/ml) Subject 1 [6, 24]: 2427 pg/mL

Structure (SMILES): CC(=O)Oc1ccccc1C(=O)O [Aspirin, Acetylsalicylic acid]
- IL-6 (pg/ml) Subject 2 [1, 9]: 2089 pg/mL
- IL-6 (pg/ml) Subject 1 [1, 10]: 2199 pg/mL
- IL-6 (pg/ml) Subject 2 [1, 11]: 2010 pg/mL
- IL-6 (pg/ml) Subject 1 [1, 12]: 1987 pg/mL
- PGE2 levels [2, 13]: 588 ± 21 pg/mL
- PGE2 levels [2, 14]: 571 ± 53 pg/mL
- effect on the effect of LPS on PGE2 secretion [2]: suppressed
- IL-6 (pg/ml) Subject 1 [3]: 95 pg/mL
- IL-6 (pg/ml) Subject 2 [3]: 146 pg/mL
- effect on the effect of carbachol and LPS on IL-6 responses [3]: suppress
- PGE2 levels (pg/ml) Subject 2 [4, 15]: 59 pg/mL
- PGE2 levels (pg/ml) Subject 1 [4, 16]: 89 pg/mL
- PGE2 levels (pg/ml) Subject 2 [4, 17]: 598 pg/mL
- PGE2 levels (pg/ml) Subject 1 [4, 18]: 838 pg/mL
- PGE2 levels (pg/ml) Subject 2 [4, 19]: 534 pg/mL
- PGE2 levels (pg/ml) Subject 1 [4, 20]: 812 pg/mL
- effect on the LPS-induced PGE2 responses [4]: suppress
- TNFα (pg/ml) Subject 2 [5]: 142 pg/mL
- TNFα (pg/ml) Subject 1 [5]: 110 pg/mL
- effect on the effect of carbachol and LPS on TNFα responses [5]: suppress
- TNFα (pg/ml) Subject 2 [6, 21]: 2187 pg/mL
- TNFα (pg/ml) Subject 1 [6, 22]: 2479 pg/mL
- TNFα (pg/ml) Subject 2 [6, 23]: 2089 pg/mL
- TNFα (pg/ml) Subject 1 [6, 24]: 2266 pg/mL
